The text below walks through data of patent US9845292B2 (Max-Planck-Gesellschaft zur Förderung der Wissenschaften …, priority 2013, dated 2017).

Where two headings read alike, the source gives them in different places.

Assay [1] concerns the target T1, FKBP52 (Homo sapiens, UniProt Q02790).
T1 construct: Purified FK1-domains of FKBP51WT (4.5 nM) with F4 (3 nM), FKBP52WT (400 nM) with F2 (20 nM); implied by Ni-NTA purification) (N); made in house; host or cells: E. coli BL21(DE3)pLysS
T1 sequence (Q02790 50-138 limits assumed): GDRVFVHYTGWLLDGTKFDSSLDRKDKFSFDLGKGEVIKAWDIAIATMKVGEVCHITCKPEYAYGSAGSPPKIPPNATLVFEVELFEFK
Kind of assay: Fluorescence polarization binding assay, FK1-domain of FKBP52WT with tracer F2 (selectivity FKBP51 vs. FKBP52). As to conditions: selectivity factor over FKBP52. How it is done: (§1) The target protein was also diluted in this assay buffer at double the highest concentration required for the final sample. This protein stock was used for a 1:1 serial dilution.
(§2) The inventive compound was dissolved in DMSO to reach a 100-times concentrated stock solution. This was used for a 1:1 serial dilution in DMSO.
(§3) For FKBP12, −51, and −52 the binding assays were performed in duplicates in the plate format.
(§4) The competition curves were analyzed by using SigmaPlot9. Data were fitted to a four parameter logistic curve to deduce the IC50 values. […] A=(Amax−Amin)/[L]t×(([L]t×((2×((Klig+Kcomp+[L]t+[I]t−[R]t)^2−3×(Kcomp×([L]t−[R]t)+Klig×([I]t−[R]t)+Klig×Kcomp))^0.5×COS(ARCCOS((−2×(Klig+Kcomp+[L]t+[I]t−[R]t)^3+9×(Klig+Kcomp+[L]t+[I]t−[R]t)×(Kcomp×([L]t−[R]t)+Klig×([I]t−[R]t)+Klig×Kcomp)−27×(−1×Klig×Kcomp×[R]t))/(2×((((Klig+Kcomp+[L]t+[I]t−[R]t)^2−3×(Kcomp×([L]t−[R]t)+Klig×([I]t−[R]t)+Klig×Kcomp))^3)^0.5)))/3))−(Klig+Kcomp+[L]t+[I]t−[R]t)))/((3×Klig)+((2×((Klig+Kcomp+[L]t+[I]t−[R]t)^2−3×(Kcomp×([L]t−[R]t)+Klig×([I]t−[R]t)+Klig×Kcomp))^0.5×COS(ARCCOS((−2×(Klig+Kcomp+[L]t+[I]t−[R]t)^3+9×(Klig+Kcomp+[L]t+[I]t−[R]t)×(Kcomp×([L]t−[R]t)+Klig×([I]t−[R]t)+Klig×Kcomp)−27×(−1×Klig×Kcomp×[R]t))/(2×((((Klig+Kcomp+[L]t+[I]t−[R]t)^2−3×(Kcomp×([L]t−[R]t)+Klig×([I]t−[R]t)+Klig×Kcomp))^3)^0.5)))/3))−(Klig+Kcomp+[L]t+[I]t−[R]t))))+Amin
(§5) In this equation Klig and Kcomp stand for the Kd values of the used tracer or competing inhibitor, [I]t is referring to the total concentration of the titrated inhibitor.
The Selectivity of the Compounds was Classified by Ki(FKBP51)/Ki(FKBP52)
(§6) Inhibition constants were measured in a fluorescence polarization binding assay by titrating the compounds.

Assay [2] deals with T2, FKBP51 (Homo sapiens, UniProt Q13451).
T2 sequence (Q13451 42-130 limits assumed): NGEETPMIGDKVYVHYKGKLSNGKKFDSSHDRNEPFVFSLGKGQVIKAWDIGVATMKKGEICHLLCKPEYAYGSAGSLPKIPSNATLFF
The assay is described as follows: Fluorescence polarization binding assay, FK1-domain of FKBP51WT with tracer F4. Set-up: Purified FK1-domains of FKBP51WT (4.5 nM) with F4 (3 nM), FKBP52WT (400 nM) with F2 (20 nM); made in house; host or cells: E. coli BL21(DE3)pLysS. Conditions: read-out: Affinity(Ki) for FKBP51. How it is done:
as §1, §2, §3, §4, §5, §6
(In general: Polarisation of emitted light reports the rotation of a fluorescent probe.)

[3] abbreviates: FKBP52WT (400 nM) with F2 (20 nM), A series.
Where [4] appears, read: FK1-domain of FKBP51WT (4.5 nM) with F4 (3 nM), A series.

As usually defined, the Ki is the dissociation constant of the complex between target and ligand, obtained from inhibition or displacement. For `COc1ccc(CCC(OC(=O)[C@@H]2CCCCN2C(=O)[C@H](NC(=O)c2ccccc2)C2CCCCC2)c2cccc(OCC(=O)O)c2)cc1OC` (stereo partly drawn) [Compound A23, 2-(3-(1-(((2S)-1-(2-benzamido-2-cyclohexylacetyl)piperidine-2-carbonyl)oxy)-3-(3,4-dimethoxyphenyl)propyl)phenoxy)acetic acid], the “Ki(FKBP51)/Ki(FKBP52)” value in assay [1] (setting [3]) is “+ (>5 +)”. Besides, the Ki in assay [2] (setting [4]) fell in the range of 10 to 50 µM.
For `COc1ccc(CCC(OC(=O)[C@@H]2CCCCN2C(=O)C(NC(=O)c2ccccc2O)C2CCCCC2)c2cccc(OCC(=O)O)c2)cc1OC` (stereo partly drawn) [Compound A24, 2-(3-(1-(((2S)-1-(2-cyclohexyl-2-(2-hydroxybenzamido)acetyl)piperidine-2-carbonyl)oxy)-3-(3,4-dimethoxyphenyl)propyl)phenoxy)acetic acid], the “Ki(FKBP51)/Ki(FKBP52)” value in assay [1] (setting [3]) is “+ (>5 +)”. Further, the Ki in assay [2] (setting [4]) was in the range of 10 to 50 µM.
On to `COc1ccc(CCC(OC(=O)[C@@H]2CCCCN2C(=O)C(NC(=O)c2ccccn2)C2CCCCC2)c2cccc(OCC(=O)O)c2)cc1OC` (stereo partly drawn) [Compound A25, 2-(3-(1-(((2S)-1-(2-cyclohexyl-2-(picolinamido)acetyl)piperidine-2-carbonyl)oxy)-3-(3,4-dimethoxyphenyl)propyl)phenoxy) acetic acid], for which, in assay [1] (setting [3]), the “Ki(FKBP51)/Ki(FKBP52)” value is “+ (>5 +)”. In addition, in assay [2] (setting [4]), the Ki lay in the range of 10 to 50 µM.
On to `COc1ccc(CCC(OC(=O)[C@@H]2CCCCN2C(=O)C(NC(=O)C2CCCCC2)C2CCCCC2)c2cccc(OCC(=O)O)c2)cc1OC` (stereo partly drawn) [Compound A26, 2-(3-(1-(((2S)-1-(2-(cyclohexanecarboxamido)-2-cyclohexylacetyl)piperidine-2-carbonyl)oxy)-3-(3,4-dimethoxyphenyl)propyl)phenoxy)acetic acid], for which the “Ki(FKBP51)/Ki(FKBP52)” value in assay [1] (setting [3]) is “+ (>5 +)”. Moreover, the Ki in assay [2] (setting [4]) lay within 10 to 50 µM.
Consider `COc1ccc(CCC(OC(=O)[C@@H]2CCCCN2C(=O)C(NC(=O)C2N=CN=N2)C2CCCCC2)c2cccc(OCC(=O)O)c2)cc1OC` (stereo partly drawn) [Compound A27, 2-(3-(1-(((2S)-1-(2-cyclohexyl-2-(3H-1,2,4-triazole-3-carboxamido)acetyl)piperidine-2-carbonyl)oxy)-3-(3,4-dimethoxyphenyl)propyl)phenoxy)acetic acid], for which the “Ki(FKBP51)/Ki(FKBP52)” value in assay [1] (setting [3]) is given as “+ (>5 +)”. For the same compound, the Ki in assay [2] (setting [4]) lay within 10 to 50 µM.
Turning to `COc1ccc(CCC(OC(=O)[C@@H]2CCCCN2C(=O)C(NC(=O)c2cc(Cl)cc(Cl)c2)C2CCCCC2)c2cccc(OCC(=O)O)c2)cc1OC` (stereo partly drawn) [Compound A28, 2-(3-(1-(((2S)-1-(2-cyclohexyl-2-(3,5-dichlorobenzamido)acetyl)piperidine-2-carbonyl)oxy)-3-(3,4-dimethoxyphenyl)propyl)phenoxy)acetic acid], the “Ki(FKBP51)/Ki(FKBP52)” value in assay [1] (setting [3]) is listed as “+ (>5 +)”. Further, the Ki in assay [2] (setting [4]) was in the range of 10 to 50 µM.
On the same counts, the results for `COc1ccc(CC[C@@H](OC(=O)[C@@H]2CCCCN2C(=O)[C@H](c2cccc(F)c2)C2CCCCC2)c2cccc(OCC(=O)O)c2)cc1OC` [Compound A36, 2-(3-((R)-1-(((S)-1-((S)-2-cyclohexyl-2-(3-fluorophenyl)acetyl)piperidine-2-carbonyl)oxy)-3-(3,4-dimethoxyphenyl)propyl)phenoxy)acetic acid] are “+++ (>500 +++)” and 1 to 10 µM.
Take `COc1cc([C@@H](C(=O)N2CCCC[C@H]2C(=O)N[C@@H](C)C(N)=O)C2CCCCC2)cc(OC)c1OC` [Compound B01, (S)-N-((S)-1-amino-1-oxopropan-2-yl)-1-((S)-2-cyclohexyl-2-(3,4,5-trimethoxyphenyl)acetyl)piperidine-2-carboxamide]: the “Ki(FKBP51)/Ki(FKBP52)” value in assay [1] (compounds B01-C25) is recorded as “++ (>50 ++)”. For the same compound, in assay [2] (compounds B01-C25), the Ki is 1 to 10 µM.
As to `COc1cc([C@@H](C(=O)N2CCCC[C@H]2C(=O)N[C@H](C)C(N)=O)C2CCCCC2)cc(OC)c1OC` [Compound B02, (S)-N-((R)-1-amino-1-oxopropan-2-yl)-1-((S)-2-cyclohexyl-2-(3,4,5-trimethoxyphenyl)acetyl)piperidine-2-carboxamide], the “Ki(FKBP51)/Ki(FKBP52)” value in assay [1] (compounds B01-C25) is reported as “++ (>50 ++)”. Also, the Ki in assay [2] (compounds B01-C25) lay in the range of 1 to 10 µM.
Turning to `COc1cc([C@@H](C(=O)N2CCCC[C@H]2C(=O)N[C@H](C(N)=O)C(C)C)C2CCCCC2)cc(OC)c1OC` [Compound B03, (S)-N-((S)-1-amino-3-methyl-1-oxobutan-2-yl)-1-((S)-2-cyclohexyl-2-(3,4,5-trimethoxyphenyl)acetyl)piperidine-2-carboxamide], in assay [1] (compounds B01-C25), the “Ki(FKBP51)/Ki(FKBP52)” value is on record as “+ (>5 +)”. In addition, the Ki in assay [2] (compounds B01-C25) lay in the range of 10 to 50 µM.
Turning to `COc1cc([C@@H](C(=O)N2CCCC[C@H]2C(=O)N[C@@H](C(N)=O)C(C)C)C2CCCCC2)cc(OC)c1OC` [Compound B04, (S)-N-((R)-1-amino-3-methyl-1-oxobutan-2-yl)-1-((S)-2-cyclohexyl-2-(3,4,5-trimethoxyphenyl)acetyl)piperidine-2-carboxamide], in assay [1] (compounds B01-C25), the “Ki(FKBP51)/Ki(FKBP52)” value is reported as “+ (>5 +)”. In addition, the Ki in assay [2] (compounds B01-C25) was in the range of 1 to 10 µM.
As to `COc1cc([C@@H](C(=O)N2CCCC[C@H]2C(=O)N[C@@H](Cc2ccccc2)C(N)=O)C2CCCCC2)cc(OC)c1OC` [Compound B05, (S)-N-((S)-1-amino-1-oxo-3-phenylpropan-2-yl)-1-((S)-2-cyclohexyl-2-(3,4,5-trimethoxyphenyl)acetyl)piperidine-2-carboxamide], the “Ki(FKBP51)/Ki(FKBP52)” value in assay [1] (compounds B01-C25) is given as “++ (>50 ++)”. Also, in assay [2] (compounds B01-C25), the Ki lay within 1 to 10 µM.
For `COc1cc([C@@H](C(=O)N2CCCC[C@H]2C(=O)N[C@H](Cc2ccccc2)C(N)=O)C2CCCCC2)cc(OC)c1OC` [Compound B06, (S)-N-((R)-1-amino-1-oxo-3-phenylpropan-2-yl)-1-((S)-2-cyclohexyl-2-(3,4,5-trimethoxyphenyl)acetyl)piperidine-2-carboxamide], in assay [1] (compounds B01-C25), the “Ki(FKBP51)/Ki(FKBP52)” value was “++ (>50 ++)”. Moreover, the Ki in assay [2] (compounds B01-C25) is 1 to 10 µM.
For `COc1cc([C@@H](C(=O)N2CCCC[C@H]2C(=O)N[C@@H](CC2CCCCC2)C(N)=O)C2CCCCC2)cc(OC)c1OC` [Compound B07, (S)-N-((S)-1-amino-3-cyclohexyl-1-oxopropan-2-yl)-1-((S)-2-cyclohexyl-2-(3,4,5-trimethoxyphenyl)acetyl)piperidine-2-carboxamide], in assay [1] (compounds B01-C25), the “Ki(FKBP51)/Ki(FKBP52)” value is given as “+ (>5 +)”. In assay [2] (compounds B01-C25), the Ki lay within 10 to 50 µM.
On to `COc1cc([C@@H](C(=O)N2CCCC[C@H]2C(=O)N[C@@H](CCc2ccccc2)C(N)=O)C2CCCCC2)cc(OC)c1OC` [Compound B08, (S)-N-((S)-1-amino-1-oxo-4-phenylbutan-2-yl)-1-((S)-2-cyclohexyl-2-(3,4,5-trimethoxyphenyl)acetyl)piperidine-2-carboxamide], for which the “Ki(FKBP51)/Ki(FKBP52)” value in assay [1] (compounds B01-C25) is recorded as “++ (>50 ++)”. For the same compound, the Ki in assay [2] (compounds B01-C25) fell in the range of 1 to 10 µM.
In the case of `COc1cc([C@@H](C(=O)N2CCCC[C@H]2C(=O)N[C@@H](CCC2CCCCC2)C(N)=O)C2CCCCC2)cc(OC)c1OC` [Compound B09, (S)-N-((S)-1-amino-4-cyclohexyl-1-oxobutan-2-yl)-1-((S)-2-cyclohexyl-2-(3,4,5-trimethoxyphenyl)acetyl)piperidine-2-carboxamide], in assay [1] (compounds B01-C25), the “Ki(FKBP51)/Ki(FKBP52)” value is “++ (>50 ++)”. In addition, the Ki in assay [2] (compounds B01-C25) lay in the range of 10 to 50 µM.
Consider `COc1cc([C@@H](C(=O)N2CCCC[C@H]2C(=O)NCC(N)=O)C2CCCCC2)cc(OC)c1OC` [Compound B10, (S)-N-(2-amino-2-oxoethyl)-1-((S)-2-cyclohexyl-2-(3,4,5-trimethoxyphenyl)acetyl)piperidine-2-carboxamide], for which the “Ki(FKBP51)/Ki(FKBP52)” value in assay [1] (compounds B01-C25) was “+ (>5 +)”. Also, the Ki in assay [2] (compounds B01-C25) was in the range of 10 to 50 µM.
The corresponding values for `COc1cc([C@@H](C(=O)N2CCCC[C@H]2C(=O)NC(C)(C)C(N)=O)C2CCCCC2)cc(OC)c1OC` [Compound B11, (S)-N-(1-amino-2-methyl-1-oxopropan-2-yl)-1-((S)-2-cyclohexyl-2-(3,4,5-trimethoxyphenyl)acetyl)piperidine-2-carboxamide] are “+++ (>500 +++)” and 1 to 10 µM.
